# Measured values published in patent publication US8624032B2, “Compound libraries made through phosphine-catalyzed annulation/Tebbe/Diels-Alder reactions” (The Regents of the University of California, priority 2011, dated 2014).
# What was measured:
# [1] = test system: cell migration; settings: natural product comparator; read-out: IC50 (inhibition of cell migration); cited from earlier work
# [2] = test system: MDA-MB-231 cells; test: tetrazolium salt-based cell proliferation and viability assay (CCK-8); set-up: species or system human; settings: 48 hours
# Experimental: Compounds 90, 92 and 94 were also evaluated in a tetrazolium salt-based cell proliferation and viability assay.
# The cell proliferation and cell viability assay was conducted according to the manufacturer's instructions (CCK-8; Dojindo Molecular Technologies). MDA-MB-231 cells were plated in 96-well tissue culture plates ([…] per well of a 4×10^4 cells per mL suspension in growth medium) and incubated for 24 hours at 37° C. under 5% CO2. The cells were then treated with the tested compounds at various concentrations or with DMSO alone. In all cases, the final DMSO concentration was 0.05%. At the same time, other cells from parallel plates were analyzed using the CCK-8 assay to establish the cell density at the start of the experiment. After 48 hours of incubation, the cell numbers for the experimental samples were determined and compared with the initial cell numbers.
# [3] = test system: MDA-MB-231 human breast cancer cells; test: trypan blue dye exclusion assay at the end of wound closure experiments; assay type: cell-based; settings: lowest concentration tested with statistically significant cell death by the end of wound closure experiments
# Experimental: Compounds were first screened at 50 μm and evaluated for their antimigratory activity and cytotoxicity. This was accomplished by scoring wounds as opened or closed as a function of time following wounding to determine the time to closure. Cell viability was determined by the trypan blue dye exclusion assay conducted at the end of each experiment, with the ratio of dye-non-excluding (dead) to dye-excluding (live) cells compared with the control, described in greater detail in Example 7.
# Minimum lethal concentration (MLC) represents the lowest concentration tested at which there was statistically significant cell death, measured using the trypan blue dye exclusion assay, by the end of wound closure experiments. The minimum lethal concentration (MLC) for compound 94 under the conditions of the cell invasion assay was 50 μm. In the cell invasion assay, cells were at a lower density than in the wound closure assay, and compounds were added at the same time as the cells, rather than after attachment and growth.
# [4] = test system: MDA-MB-231 cells; test: cell invasion assay through Matrigel in transwell chambers; assay type: cell-based, human; settings: subtoxic concentrations, 24 hours
# Experimental: Cell migration is a necessary condition for the metastasis of solid tumors. A major determinant of the metastatic potential of a cancer cell is its ability to invade through extracellular matrix barriers. Therefore, compounds 90, 92 and 94 were tested for their activities using a cell invasion assay.
# Compounds 90, 92, and 94 were analyzed for their ability to inhibit the invasion of cells through Matrigel in a cell invasion assay. The assay was performed in transwell chambers according to the manufacturer's instructions (BD Biosciences). The polycarbonate membranes (8 μm pore size) of the upper chambers were coated with Matrigel (25 μg). Growth medium containing the tested compound or DMSO alone was added to the lower chambers ([…] per well in 24-well BD Falcon TC companion plates). […] After removing noninvaded cells from the upper surface of the membrane with a cotton swab, the invaded cells on the lower surface were fixed with MeOH, stained with crystal violet solution, rinsed with water, air-dried, and then counted by using an inverted microscope. In parallel experiments, cell viability, determined using the trypan blue dye exclusion assay at various concentrations of the tested compounds, was evaluated under the conditions of the cell invasion assay.
# [5] = test system: MDA-MB-231 human breast cancer cells; test: wound closure assay (cell migration); assay type: cell-based; settings: for effect on wound closure or cytotoxicity in the screen: 24 hours after wounding
# Experimental: In the wound closure assay, MDA-MB-231 cells (American Type Culture Collection number: HTB-26) were cultured in 75 cm^2 tissue culture flasks with growth medium (DMEM containing 10% fetal bovine serum) at 37° C. under 5% CO2 in a humidified tissue culture incubator. The cells were grown to 80% confluence and then treated with trypsin, collected, and replated in 96-well tissue culture plates for initial screening. Once confluent, the cell cultures were treated with compounds at various concentrations or with DMSO carrier solvent alone with fresh growth medium. In all cases, the final DMSO concentration was 0.05%. After 30 minutes, the cell cultures were wounded with a sterile micropipette tip, and the wound closure experiments were performed essentially as described previously.
# Cell monolayers in 24-well tissue culture plates were treated with different concentrations of each compound 30 minutes before wounding and then wounded, as described above.
# Digital images of the wounds were captured immediately after wounding and at 3 h, 6 h, 9 h, 12 h, and 24 hours post-wounding. The open wound areas, as a function of time after wounding, were determined with NIH Image J software to establish the mean percent wound closure over time for each treatment and parallel controls, as previously described. The mean percent wound closure values at 9 hours post-wounding for all concentrations up to the maximal subtoxic concentration were subjected to nonlinear regression to calculate IC50 values and 95% confidence intervals for inhibition of wound closure.
# The Minimum Inhibitory Concentration (MIC) column of Table 1 represents the lowest concentration tested at which there was statistically significant inhibitory activity in the wound closure assay as determined by unpaired, two-tailed Student's t-tests (P<0.05).
# Half-maximal inhibitory concentration (IC50) values shown in Table 1 were calculated for inhibition of wound closure at 9 hours post-wounding from concentration—response profiles for a range of subtoxic concentrations (n=7−9 wounds from three independent experiments).
Structure (SMILES),IC50 [1],inhibition of cell growth ([2]; concentrations that inhibit migration and invasion),cytotoxicity ([2]; higher concentrations),MLC (minimum lethal concentration) [3],activity against cell invasion [4],effect on wound closure or cytotoxicity in the screen ([5]; 2 μm),effect on wound closure or cytotoxicity in the screen ([5]; 10 μm),effect on wound closure or cytotoxicity in the screen ([5]; 50 μm),"IC50 ([5]; Homo sapiens, MDA-MB-231, 9 hours post-wounding, subtoxic concentrations, n=7-9 wounds from three independent experiments, read-out: IC50 (inhibition of wound closure))","MIC (minimum inhibitory concentration, wound closure) ([5]; lowest concentration tested with statistically significant inhibitory activity (P<0.05))",antimigratory activity in the wound closure assay ([5]; subtoxic concentrations)
CO[C@H]1/C=C/CC/C=C/C(=O)O[C@H]([C@H](C)C(=O)CCCC2CC(=O)NC(=O)C2)/C(C)=C\[C@@H](C)[C@@H]1O [migrastatin],29 µM,–,–,–,–,–,–,–,–,–,–
CCOc1cc2c(c3c1C(c1ccccc1)N(S(=O)(=O)c1ccc(C)cc1)C3)C(=O)C=CC2=O (centres unmarked) [Compound 92],–,did not inhibit cell growth,become cytotoxic at higher concentrations over a very narrow range,50 µM,inhibit cell migration and invasion at subtoxic concentrations,inactive,inhibit wound closure or were cytotoxic,inhibit wound closure or were cytotoxic,14.8 µM,5 µM,exhibited subtoxic antimigratory activity
